Patent US10722483B2, “Treatment of NAFLD and NASH” (CymaBay Therapeutics, Inc., priority 2014, dated 2020)
Where two headings read alike, the source gives them in different places.

Columns and labels:
[1] = rodent models of NAFLD/NASH; cited from earlier work
[2] = cited from earlier work
[3] = 80 mg/day or placebo, NASH patients; cited from earlier work
[4] = normal mice; cited from earlier work
[5] = genetically obese ob/ob mice; cited from earlier work
[6] = healthy subjects, cited from earlier work
[7] = dyslipidemic subjects with abdominal obesity; cited from earlier work
[8] = development discontinued; cited from earlier work
PPARα = biological target: T1, PPARα (Homo sapiens, UniProt Q07869); assay: Specificity of MBX-8025 compared with PPARα; assay type: biochemical
T1 sequence (Q07869 1-468): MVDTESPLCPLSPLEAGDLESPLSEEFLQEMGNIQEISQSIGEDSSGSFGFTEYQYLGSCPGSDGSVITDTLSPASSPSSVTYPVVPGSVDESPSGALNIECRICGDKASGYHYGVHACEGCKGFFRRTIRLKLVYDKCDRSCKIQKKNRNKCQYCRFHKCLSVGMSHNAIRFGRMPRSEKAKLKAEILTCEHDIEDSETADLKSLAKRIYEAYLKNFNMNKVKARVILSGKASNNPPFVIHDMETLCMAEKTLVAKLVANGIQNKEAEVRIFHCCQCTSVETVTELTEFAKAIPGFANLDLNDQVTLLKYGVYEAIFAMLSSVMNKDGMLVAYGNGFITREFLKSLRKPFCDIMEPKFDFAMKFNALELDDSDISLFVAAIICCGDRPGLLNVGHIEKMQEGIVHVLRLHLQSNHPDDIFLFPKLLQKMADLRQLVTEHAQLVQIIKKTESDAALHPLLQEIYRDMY

[9] = Example: subjects with NAFLD or NASH treated with MBX-8025 for 6 months; assay type: in vivo, human; settings: 50 or 100 mg/day for 6 months
Description: Subjects are permitted their usual other medications (e.g. antidiabetic medications such as metformin or […]) but not glitazones, PPAR agonists, OCA, or similar medications. […] At each visit, after a 12-hour fast, blood is drawn and urine collected; and a standard metabolic panel, complete blood count, and standard urinalysis are performed. Blood is analyzed for total cholesterol, HDL-C, LDL-C, VLDL-C, TGs, apoB, and liver transaminases. The subjects also maintain health diaries, which are reviewed at each visit.

[10] = cited from earlier work; remark: listed apart in the source
[11] = NAFLD/NASH; cited from earlier work
[12] = both women and men; cited from earlier work

CSc1ccc(C(=O)/C=C/c2cc(C)c(OC(C)(C)C(=O)O)c(C)c2)cc1 [GFT505]
hepatic steatosis, inflammation, fibrosis and liver dysfunction markers [1]: decreased
liver dysfunction markers including ALT, ALP and GGT ([2]; clinical studies): decrease
lipid-modifying efficacy (reduction in TGs, non-HDL-C, total cholesterol, LDL-C, apoB; increases in HDL-C) ([2]; healthy subjects and patients with T2DM, abdominal obesity, dyslipidemia, pre-diabetes, insulin resistance): confirmed
interim safety analysis at 6 months [3]: no safety issue

Cc1cc(SCc2sc(-c3ccc(C(F)(F)F)cc3)nc2C)ccc1OCC(=O)O [GW510516]
diet-induced obesity and insulin resistance [4]: ameliorated
diabetes (glucose and insulin levels) [5]: markedly improved
reduction in hepatic fat ([6]; one of the Phase 1 studies): 20%
TGs, LDL-C, apoB, and insulin levels ([6]; two Phase 1 studies): reduce
decrease in fasting TGs [7]: 30%
decrease in fasting insulin [7]: 11%
reduction in LDL-C [7]: 23%
reduction in apoB [7]: 26%
reduction in fasting non-esterified fatty acids [7]: 40%
reduction in hepatic fat [7]: 20%
association with cancers in animal studies [8]: rapid development of cancers in several organs

CCO[C@H](COc1ccc(C(F)(F)F)cc1)CSc1ccc(OCC(=O)O)c(C)c1 [MBX-8025, (R)-2-(4-((2-ethoxy-3-(4-(trifluoromethyl)phenoxy)propyl)-thio)-2-methylphenoxy)acetic acid]
specificity for PPARδ compared with PPARα receptor (PPARα): > 600 fold
improvement in disease as manifested by MRI and liver biopsy [9]: dose-related improvement
reduction in LDL-C in the tertile with the highest starting LDL-C levels (187-205 mg/dL) ([10]; 100 mg/day): 35%
reduction of LDL-C over the total population treated ([10]; 100 mg/day): 22%
reduction (decrease) of LDL-S/VS ([10]; 8 weeks): 40-48%
reduction of apoB100 compared to placebo ([10]; MBX-8025 50 or 100 mg alone and in combination with atorvastatin 20 mg, 8 weeks, P<0.05): 20-38%
raise of HDL-C ([10]; MBX-8025 alone and in combination with atorvastatin, 8 weeks): 1-12%
insulin sensitivity (HOMA-IR, fasting plasma glucose, and insulin) ([10]; in vivo): increases insulin sensitivity

CC(C)c1c(C(=O)Nc2ccccc2)c(-c2ccccc2)c(-c2ccc(F)cc2)n1CC[C@@H](O)C[C@@H](O)CC(=O)O [atorvastatin]
reduction (decrease) of LDL-S/VS ([10]; 8 weeks): 25%

CCCCCCCCCCC[C@@H](C[C@@H]1OC(=O)[C@H]1CCCCCC)OC(=O)[C@H](CC(C)C)NC=O [orlistat]
benefit compared to weight loss alone (diet and exercise) [11]: no significant benefit

CCc1ccc(CCOc2ccc(CC3SC(=O)NC3=O)cc2)nc1 (centres unmarked) [pioglitazone]
risk of weight gain, edema, congestive heart failure, and osteoporotic fractures [12]: significantly increased risk
